Assay results taken from ChEMBL document CHEMBL3639324, “Meta-substituted phenyl sulfonyl amides of secondary amino acid amides, the production thereof, and use thereof as matriptase inhibitors” (2013).

Molecular target: T1, Suppressor of tumorigenicity 14 protein (Homo sapiens, UniProt Q9Y5Y6)
T1 sequence (Q9Y5Y6 whole entry): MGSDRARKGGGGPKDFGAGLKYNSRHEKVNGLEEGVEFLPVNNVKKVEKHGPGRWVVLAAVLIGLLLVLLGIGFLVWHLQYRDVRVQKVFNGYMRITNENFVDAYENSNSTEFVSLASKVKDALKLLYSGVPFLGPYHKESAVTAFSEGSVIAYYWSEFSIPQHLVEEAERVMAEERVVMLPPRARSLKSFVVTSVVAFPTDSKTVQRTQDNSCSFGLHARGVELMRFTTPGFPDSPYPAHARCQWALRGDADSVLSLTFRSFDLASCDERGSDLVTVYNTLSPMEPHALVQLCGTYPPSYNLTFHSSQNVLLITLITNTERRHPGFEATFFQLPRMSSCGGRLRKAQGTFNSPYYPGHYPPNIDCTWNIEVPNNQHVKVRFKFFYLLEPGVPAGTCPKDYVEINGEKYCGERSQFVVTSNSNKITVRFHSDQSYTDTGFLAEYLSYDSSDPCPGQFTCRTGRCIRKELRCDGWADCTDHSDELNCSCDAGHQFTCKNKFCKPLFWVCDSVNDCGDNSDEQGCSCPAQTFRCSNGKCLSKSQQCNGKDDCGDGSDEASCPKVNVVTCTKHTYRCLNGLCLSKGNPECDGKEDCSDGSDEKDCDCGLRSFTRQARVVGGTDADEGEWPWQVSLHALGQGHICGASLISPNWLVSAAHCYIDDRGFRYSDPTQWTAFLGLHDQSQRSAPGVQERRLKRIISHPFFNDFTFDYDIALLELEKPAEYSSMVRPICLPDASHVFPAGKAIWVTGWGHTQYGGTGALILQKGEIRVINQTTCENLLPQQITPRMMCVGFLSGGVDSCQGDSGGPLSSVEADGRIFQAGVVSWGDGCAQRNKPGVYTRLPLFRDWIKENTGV
Test: Inhibition Assay: Inhibition assay using matriptase enzyme

Ki: 24 nM
Structure (SMILES): CNC(=O)CCCC1CCN(C(=O)[C@H](Cc2cccc(C(=N)N)c2)NS(=O)(=O)c2cccc(N3CCNCC3=O)c2)CC1
